# Source: the supplement of paper PMC10307832
# Assays:
# Assay in all cases: relative viability (nuclei count vs DMSO), 5 days (fraction); higher = more cells survive
# [1] = compound: CCn1c(-c2nonc2N)nc2cnc(Oc3cccc(NC(=O)c4ccc(OCCN5CCOCC5)cc4)c3)cc21 + C[C@@H](Oc1cc(-c2cnn(C3CCNCC3)c2)cnc1N)c1c(Cl)ccc(F)c1Cl [Crizotinib] (partner 1 µM)
# Summary of the method: (§1)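 Relative viability equals treated-well nuclei counts divided by vehicle-well nuclei counts. Counts came from 4× images of lung cancer cell lines grown in 1536-well plates for 5 days after pin-tool dosing on the day after seeding. Dosing used one drug alone or a fixed anchor-drug dose plus five library-drug doses (not always all listed) in √10 steps, and values are medians of duplicate plates.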
# Mirin + Luminespib = compound: N=C1NC(=O)/C(=C/c2ccc(O)cc2)S1 [Mirin] + CCNC(=O)c1noc(-c2cc(C(C)C)c(O)cc2O)c1-c1ccc(CN2CCOCC2)cc1 [Luminespib] (partner 0.01 µM)
# Summary of the method: as §1
# Mirin + Crizotinib = compound: N=C1NC(=O)/C(=C/c2ccc(O)cc2)S1 [Mirin] + C[C@@H](Oc1cc(-c2cnn(C3CCNCC3)c2)cnc1N)c1c(Cl)ccc(F)c1Cl [Crizotinib] (partner 1 µM)
# Summary of the method: as §1
# Mirin + Pemetrexed = compound: N=C1NC(=O)/C(=C/c2ccc(O)cc2)S1 [Mirin] + Nc1nc2[nH]cc(CCc3ccc(C(=O)N[C@@H](CCC(=O)O)C(=O)O)cc3)c2c(=O)[nH]1 [Pemetrexed] (partner 0.2 µM)
# Summary of the method: as §1
Cell Line,relative viability ([1]; first compound 0.04 µM),relative viability ([1]; first compound 0.1265 µM),relative viability ([1]; first compound 0.4 µM),relative viability ([1]; first compound 1.265 µM),relative viability ([1]; first compound 4 µM),relative viability (Mirin + Luminespib; first compound 0.25 µM),relative viability (Mirin + Luminespib; first compound 0.7906 µM),relative viability (Mirin + Luminespib; first compound 2.5 µM),relative viability (Mirin + Luminespib; first compound 7.906 µM),relative viability (Mirin + Luminespib; first compound 25 µM),relative viability (Mirin + Crizotinib; first compound 0.25 µM),relative viability (Mirin + Crizotinib; first compound 0.7906 µM),relative viability (Mirin + Crizotinib; first compound 2.5 µM),relative viability (Mirin + Crizotinib; first compound 7.906 µM),relative viability (Mirin + Crizotinib; first compound 25 µM),relative viability (Mirin + Pemetrexed; first compound 0.25 µM),relative viability (Mirin + Pemetrexed; first compound 0.7906 µM),relative viability (Mirin + Pemetrexed; first compound 2.5 µM),relative viability (Mirin + Pemetrexed; first compound 7.906 µM),relative viability (Mirin + Pemetrexed; first compound 25 µM)
NCI-H2347,0.602,0.69,0.589,0.484,0.39,0.33,0.295,0.372,0.409,0.575,0.759,0.68,0.693,0.502,0.631,0.424,0.474,0.47,0.422,0.473
NCI-H2405,0.964,0.782,0.655,0.257,0.285,0.624,0.586,0.664,0.702,0.649,0.835,0.584,0.878,0.816,0.793,1.1,–,1.16,1.14,1.07
NCI-H3122,0.266,0.298,0.342,0.318,0.346,0.0805,0.0865,0.0952,0.0621,0.0807,0.247,0.256,0.266,0.229,0.247,0.195,0.213,0.209,0.208,0.264
PC-3 [JPC-3],0.961,0.96,1.04,0.967,0.939,0.664,0.732,0.758,0.651,0.787,1,1.1,1.02,1.03,1.11,1.11,1.03,1.22,1.2,1.29
PC-14,0.874,0.884,0.87,0.683,0.7,0.177,0.142,0.191,0.187,0.144,0.873,0.893,0.887,0.945,1.07,0.127,0.14,0.143,0.134,0.171
RERF-LC-KJ,0.886,0.822,0.82,0.535,0.36,1.25,1.25,1.36,1.2,1.18,0.845,0.894,0.821,0.845,0.913,0.429,0.514,0.485,0.49,0.42
SK-LU-1,1.12,0.744,0.61,0.46,0.355,0.193,0.188,0.228,0.163,0.197,0.888,1.05,1.01,0.765,0.564,0.983,0.992,0.931,0.855,0.823
SK-MES-1,1.12,0.883,0.804,0.742,0.645,0.869,0.915,0.88,0.919,0.7,1.03,1.14,1,1.04,1.19,0.993,1.09,0.998,1.08,1.01
SW 1573,0.874,0.704,0.707,0.519,0.391,0.228,0.272,0.247,0.201,0.205,0.681,0.643,0.838,0.86,0.624,0.742,0.84,0.818,0.715,0.642
